Data set [1] addresses T1, 5-hydroxytryptamine receptor 2B (Homo sapiens, UniProt P41595). Put plainly: Binding affinity to 5-HT2B receptor (unknown origin).
A short description of data set [2]: Selectivity ratio, […] for 5-HT2B (unknown origin).
Data set [3] concerns the target T1, 5-hydroxytryptamine receptor 2B. Put plainly: Displacement of [3H]-LSD from human 5-HT2B receptor assessed as inhibition constant. In general terms: In a radioligand displacement assay an active substance lowers the binding of a labelled ligand.
The target is the same in data set [4]. Description: Agonist activity at 5-HT2B receptor (unknown origin) assessed as stimulation of phospho-inositide hydrolysis by IP hydrolysis assay. In kind it is functional.
Data set [5] shares this target. Description: Agonist activity at 5-HT2B receptor (unknown origin) assessed as stimulation of intracellular calcium level by calcium mobilization assay. It is filed as functional, cell-based. (Calcium assays in cells follow changes in intracellular calcium, usually with a dye or a luminescent sensor.)
The target is the same in data set [6]. Put plainly: Agonist activity at 5-HT2B receptor (unknown origin) assessed as stimulation of […] by calcium mobilization assay. It is filed as functional.
The next data set concerns the target T2, Cytochrome P450 1A2 (Homo sapiens, UniProt P05177).
T2 sequence (P05177 whole entry): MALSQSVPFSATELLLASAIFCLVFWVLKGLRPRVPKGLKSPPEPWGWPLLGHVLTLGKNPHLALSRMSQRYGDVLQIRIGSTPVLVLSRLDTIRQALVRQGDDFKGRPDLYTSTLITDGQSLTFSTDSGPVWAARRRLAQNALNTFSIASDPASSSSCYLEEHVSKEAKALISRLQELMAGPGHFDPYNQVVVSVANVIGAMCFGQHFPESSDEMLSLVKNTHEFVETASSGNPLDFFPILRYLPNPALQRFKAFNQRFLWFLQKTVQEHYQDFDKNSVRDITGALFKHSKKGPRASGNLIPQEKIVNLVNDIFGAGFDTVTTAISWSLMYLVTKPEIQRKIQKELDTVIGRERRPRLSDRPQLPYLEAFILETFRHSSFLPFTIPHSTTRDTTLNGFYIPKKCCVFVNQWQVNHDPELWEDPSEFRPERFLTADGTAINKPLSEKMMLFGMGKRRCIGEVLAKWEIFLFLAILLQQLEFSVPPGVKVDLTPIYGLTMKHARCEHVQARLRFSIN
Put plainly: Inhibition of CYP1A2 (unknown origin). It is filed as ADME.

For the next data set, the target named is Cytochrome P450 2C9 (Homo sapiens, UniProt P11712). Put plainly: Inhibition of CYP2C9 (unknown origin). In kind it is ADME.
Chain of Cytochrome P450 2C9 (P11712 whole entry): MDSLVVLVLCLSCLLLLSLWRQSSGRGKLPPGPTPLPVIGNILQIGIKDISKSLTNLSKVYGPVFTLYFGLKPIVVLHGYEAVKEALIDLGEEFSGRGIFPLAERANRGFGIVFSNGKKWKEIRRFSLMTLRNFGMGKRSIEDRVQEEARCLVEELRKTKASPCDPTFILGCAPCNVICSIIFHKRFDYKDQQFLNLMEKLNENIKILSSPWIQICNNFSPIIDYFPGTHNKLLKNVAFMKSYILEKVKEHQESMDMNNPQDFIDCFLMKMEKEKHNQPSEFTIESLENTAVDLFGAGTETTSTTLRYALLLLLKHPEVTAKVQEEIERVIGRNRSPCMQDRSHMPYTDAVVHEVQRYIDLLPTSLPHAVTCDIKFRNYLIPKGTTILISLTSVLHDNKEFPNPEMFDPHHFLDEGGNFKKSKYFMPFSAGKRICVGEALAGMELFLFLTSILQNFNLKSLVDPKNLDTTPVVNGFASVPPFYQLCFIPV
Another data set deals with Cytochrome P450 2D6 (Homo sapiens, UniProt P10635). Description: Inhibition of CYP2D6 (unknown origin). In kind it is ADME.
Chain of Cytochrome P450 2D6 (P10635 whole entry): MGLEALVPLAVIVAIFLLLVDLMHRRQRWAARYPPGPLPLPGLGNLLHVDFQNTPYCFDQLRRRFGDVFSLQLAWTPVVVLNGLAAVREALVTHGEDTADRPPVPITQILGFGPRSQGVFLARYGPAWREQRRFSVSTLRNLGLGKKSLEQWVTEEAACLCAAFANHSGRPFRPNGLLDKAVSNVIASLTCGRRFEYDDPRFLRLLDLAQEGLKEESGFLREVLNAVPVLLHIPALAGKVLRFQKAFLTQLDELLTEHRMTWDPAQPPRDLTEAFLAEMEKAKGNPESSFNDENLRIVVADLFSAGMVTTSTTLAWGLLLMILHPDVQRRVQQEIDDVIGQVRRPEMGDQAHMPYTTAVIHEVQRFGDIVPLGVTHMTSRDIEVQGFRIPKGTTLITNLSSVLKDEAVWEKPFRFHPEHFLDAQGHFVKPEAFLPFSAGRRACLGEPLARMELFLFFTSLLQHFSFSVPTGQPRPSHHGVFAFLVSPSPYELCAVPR
A further data set has as its target Cytochrome P450 3A4 (Homo sapiens, UniProt P08684). Description: Inhibition of CYP3A4 (unknown origin). In kind it is ADME.
Data set [7] in a line: Ratio of drug concentration in brain to plasma of C57BL/6 mouse administered intraperitoneally and measured for 0.25 to 24 hrs. In kind it is ADME. The note with it: time 0.25-24 hrs, route ip, read-out: BPR.
A short description of data set [8]: Half life in ip dosed C57BL/6 mouse. In kind it is ADME, organism-based. The note with it: in vivo.
Data set [9] is described as follows: Cmax in ip dosed C57BL/6 mouse. In kind it is ADME, organism-based. Details: route ip. The note with it: in vivo.

T1 sequence (P41595 whole entry): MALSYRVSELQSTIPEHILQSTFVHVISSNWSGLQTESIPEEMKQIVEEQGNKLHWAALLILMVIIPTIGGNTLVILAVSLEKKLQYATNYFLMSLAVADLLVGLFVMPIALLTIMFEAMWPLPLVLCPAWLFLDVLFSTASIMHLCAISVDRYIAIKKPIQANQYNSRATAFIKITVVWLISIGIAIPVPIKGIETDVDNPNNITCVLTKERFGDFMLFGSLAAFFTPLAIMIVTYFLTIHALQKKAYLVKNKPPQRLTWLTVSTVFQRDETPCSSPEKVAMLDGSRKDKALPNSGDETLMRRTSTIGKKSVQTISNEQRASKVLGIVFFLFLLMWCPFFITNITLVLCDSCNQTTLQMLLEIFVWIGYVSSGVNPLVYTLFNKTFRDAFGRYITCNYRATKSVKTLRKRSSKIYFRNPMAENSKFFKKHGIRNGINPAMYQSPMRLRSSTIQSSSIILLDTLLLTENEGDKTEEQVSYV
Chain of Cytochrome P450 3A4 (P08684 whole entry): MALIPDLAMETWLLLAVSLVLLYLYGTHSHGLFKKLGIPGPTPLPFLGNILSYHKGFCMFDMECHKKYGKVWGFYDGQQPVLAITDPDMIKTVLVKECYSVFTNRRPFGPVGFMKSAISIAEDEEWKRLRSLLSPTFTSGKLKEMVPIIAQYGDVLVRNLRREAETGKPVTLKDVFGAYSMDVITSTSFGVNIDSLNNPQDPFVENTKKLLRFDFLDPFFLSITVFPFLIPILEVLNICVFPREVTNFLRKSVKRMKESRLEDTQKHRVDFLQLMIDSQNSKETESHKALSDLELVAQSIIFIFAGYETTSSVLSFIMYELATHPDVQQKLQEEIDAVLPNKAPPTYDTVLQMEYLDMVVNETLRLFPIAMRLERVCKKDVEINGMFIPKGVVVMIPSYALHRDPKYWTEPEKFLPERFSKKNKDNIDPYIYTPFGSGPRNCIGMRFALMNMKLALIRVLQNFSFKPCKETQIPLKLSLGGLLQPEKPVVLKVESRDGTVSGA

Consider `Cc1cc(NC(=O)Nc2ccc3c(ccn3C)c2)sn1`, for which the Ki (commonly the equilibrium dissociation constant of an inhibitor or competing ligand from its target) in [1] was 11.2 nM. In addition, the Selectivity ratio in data set [2] was above 135.

Regarding `O=C1[C@@H]2[C@@H]3C[C@@H](C[C@H]3O)[C@@H]2C(=O)N1C[C@@H]1CCCC[C@H]1CN1CCN(c2nsc3ccccc23)CC1`, in data set [3], the Ki is 24 nM.

With `C[C@H](N)Cc1cccc(C(F)(F)F)c1` [NORDEXFENFLURAMINE], the concentration for a half-maximal effect (EC50) in [4], in data set [5] and in data set [6] was 23 nM throughout.

With `Cn1ccc2cc(-n3c(=O)[nH]c4sc5c(c4c3=O)CCCC5)ccc21`, the IC50 at Cytochrome P450 1A2, against Cytochrome P450 2C9, against Cytochrome P450 2D6 and on Cytochrome P450 3A4 was above 30 µM each time. For the same molecule, the Kp in data set [7] was 0.01. Also, the half-life (commonly the time needed for the level to fall by half in the phase considered) in data set [8] was 42 min. The Cmax (in general, the maximum level reached in the sampled fluid or tissue) in data set [9] was 43000 ng/mL.

The record behind these values is ChEMBL document CHEMBL5360673, “2B Determined: The Future of the Serotonin Receptor 2B in Drug Discovery” (J Med Chem, 2023).
